Laboratory results: patent publication US8114602B2 (priority 2003, dated 2012)
Values joined by “and” are separate entries in the source; they are usually repeats but may differ in a detail not shown here. Equal entries are not always repeated. “Also recorded” adds a separate entry of the source.

How the values were obtained:
GM1 [1] = format: binding, bovine; design: Ei (effective interaction energy): unit not given here
[2] = test system: membranes free of GM1 and GTIB; format: binding
GM1 [3] = format: binding, bovine; settings: read-out: effective dissociation constant
GTIB [4] = format: binding, bovine
GTIB [5] = format: binding, bovine; settings: read-out: effective dissociation constant

Row | Substance | Ei (effective interaction energy) (GM1 [1]) | colloidal phase response (condensed to dispersed transition) (GM1 [1]) | detection signal / binding in selectivity series (GM1 [1]) | first peak in the g(r) plot (GM1 [1]) | Ei (effective interaction energy) [2] | detection signal / binding in selectivity series [2] | Kd (GM1 [3]) | Ei (effective interaction energy) (GTIB [4]) | colloidal phase response (condensed to dispersed transition) (GTIB [4]) | Kd (GTIB [5]) | detection signal / binding in selectivity series (GTIB [4]) | first peak in the g(r) plot (GTIB [4])
1 | Cholera Toxin B-subunit [CTB] | 0.56 ± 0.12 | triggered the transition to a dispersed phase; also recorded: induces the transition | positive signal; also recorded: detected binding | noticeably absent | 2.52 ± 0.09 | Negative signals; also recorded: absence of binding | ~41 nM and ~60 nM | 2.47 ± 0.09 | without producing any effect; also recorded: no effect | – | – | –
2 | tetanus toxin [TT] | 2.63 ± 0.05 | no effect | Negative signals | – | 2.61 ± 0.05 | Negative signals | – | – | triggered formation of a dispersed phase; also recorded: induces a condensed to dispersed phase transition | ~60 nM and ~41 nM | positive signal; also recorded: detected binding | noticeably absent
3 | α-Bungarotoxin [BT] | 2.84 ± 0.02 | no effect | – | – | 2.67 ± 0.10 | Negative signals | – | 2.71 ± 0.08 | no effect | – | – | –
